From the NIST ThermoML archive (doi:10.1021/je900124n)
Where “and” joins values, the source holds several entries; their conditions need not be identical. Equal entries are not always repeated.

Conditions: Fluid (supercritical or subcritical phases), Buoyancy - hydrostatic balance with magnetic suspension - two sinkers

CCC [propane]
Conditions	mass density
340 K, 34960 kPa	514.104 kg/m3
340 K, 34961 kPa	514.106 kg/m3
340 K, 34962 kPa	514.105 kg/m3
345 K, 2494.9 kPa	58.0748 kg/m3 and 58.0791 kg/m3 and 58.0771 kg/m3
345 K, 2495 kPa	58.0845 kg/m3 and 58.0787 kg/m3
350 K, 1942.1 kPa	37.8566 kg/m3 and 37.8552 kg/m3
350 K, 1942.5 kPa	37.8654 kg/m3 and 37.8643 kg/m3
350 K, 1942.6 kPa	37.8656 kg/m3
350 K, 2573.5 kPa	58.0372 kg/m3 and 58.0366 kg/m3
350 K, 2573.6 kPa	58.041 kg/m3 and 58.0413 kg/m3 and 58.0386 kg/m3
350 K, 2844.7 kPa	70.6094 kg/m3
350 K, 2844.9 kPa	70.6242 kg/m3
350 K, 2845 kPa	70.6246 kg/m3
350 K, 2845.1 kPa	70.6278 kg/m3 and 70.6365 kg/m3
350 K, 2845.2 kPa	70.6334 kg/m3
350 K, 2845.3 kPa	70.6504 kg/m3 and 70.6463 kg/m3
350 K, 3505.9 kPa	392.661 kg/m3
350 K, 3506 kPa	392.666 kg/m3
350 K, 3506.2 kPa	392.664 kg/m3
350 K, 3506.3 kPa	392.667 kg/m3
350 K, 3506.4 kPa	392.663 kg/m3 and 392.666 kg/m3
350 K, 3506.5 kPa	392.666 kg/m3
350 K, 12070 kPa	449.428 kg/m3 [middle of 6 runs]
350 K, 12071 kPa	449.434 kg/m3 and 449.429 kg/m3
350 K, 24455 kPa	484.992 kg/m3 and 484.989 kg/m3
350 K, 24456 kPa	484.992 kg/m3
355 K, 2650.7 kPa	57.9954 kg/m3 [middle of 4 runs]
355 K, 3003.3 kPa	73.4591 kg/m3 [middle of 6 runs]
355.01 K, 3003.3 kPa	73.4598 kg/m3
359 K, 3436 kPa	96.2198 kg/m3
359 K, 3436.4 kPa	96.2687 kg/m3 and 96.2618 kg/m3 and 96.2668 kg/m3
359 K, 3436.5 kPa	96.2652 kg/m3
359.99 K, 15760 kPa	448.817 kg/m3
359.99 K, 15761 kPa	448.823 kg/m3
360 K, 303.73 kPa	4.597 kg/m3 and 4.5969 kg/m3
360 K, 303.74 kPa	4.597 kg/m3 and 4.5971 kg/m3
360 K, 539.35 kPa	8.3504 kg/m3
360 K, 539.36 kPa	8.3506 kg/m3 and 8.3504 kg/m3 and 8.3503 kg/m3
360 K, 901.24 kPa	14.4832 kg/m3 and 14.4833 kg/m3
360 K, 901.25 kPa	14.4835 kg/m3 and 14.4836 kg/m3
360 K, 1361.2 kPa	23.0769 kg/m3 and 23.078 kg/m3
360 K, 1361.3 kPa	23.0792 kg/m3
360 K, 1361.4 kPa	23.0819 kg/m3 and 23.0827 kg/m3
360 K, 2033.2 kPa	37.8651 kg/m3
360 K, 2033.3 kPa	37.8677 kg/m3
360 K, 2033.4 kPa	37.8707 kg/m3
360 K, 2033.5 kPa	37.8723 kg/m3 and 37.8724 kg/m3
360 K, 2725.4 kPa	57.912 kg/m3
360 K, 2725.5 kPa	57.9157 kg/m3
360 K, 2725.6 kPa	57.9165 kg/m3
360 K, 3108.3 kPa	73.4362 kg/m3 [middle of 6 runs]
360 K, 3108.4 kPa	73.4363 kg/m3
360 K, 3467.9 kPa	96.3808 kg/m3 and 96.381 kg/m3
360 K, 3468 kPa	96.3801 kg/m3 and 96.3793 kg/m3 and 96.3804 kg/m3
360 K, 3730.9 kPa	352.636 kg/m3 and 352.637 kg/m3
360 K, 3731 kPa	352.635 kg/m3
360 K, 3731.1 kPa	352.636 kg/m3
360 K, 5948.1 kPa	392.145 kg/m3
360 K, 5948.8 kPa	392.137 kg/m3
360 K, 5949.1 kPa	392.137 kg/m3
360 K, 5949.4 kPa	392.137 kg/m3 and 392.14 kg/m3 and 392.139 kg/m3
360 K, 5949.5 kPa	392.138 kg/m3
360 K, 5949.7 kPa	392.139 kg/m3
360 K, 7930.9 kPa	409.823 kg/m3
360 K, 7931 kPa	409.821 kg/m3
360 K, 7931.2 kPa	409.824 kg/m3
360 K, 7931.3 kPa	409.824 kg/m3
360 K, 11923 kPa	433.101 kg/m3 [middle of 5 runs]
360 K, 15761 kPa	448.822 kg/m3 and 448.82 kg/m3 and 448.823 kg/m3
360 K, 15762 kPa	448.821 kg/m3 and 448.822 kg/m3
360 K, 16074 kPa	449.912 kg/m3
360 K, 16075 kPa	449.912 kg/m3 and 449.911 kg/m3
360 K, 19910 kPa	462.101 kg/m3 and 462.102 kg/m3
360 K, 23890 kPa	472.673 kg/m3 and 472.674 kg/m3 and 472.672 kg/m3
360 K, 23891 kPa	472.674 kg/m3
360 K, 30126 kPa	486.462 kg/m3
360 K, 30127 kPa	486.462 kg/m3
360 K, 35259 kPa	496.072 kg/m3
360 K, 35260 kPa	496.073 kg/m3 and 496.072 kg/m3
360 K, 35262 kPa	496.074 kg/m3
360.01 K, 901.24 kPa	14.4833 kg/m3
360.01 K, 3108.3 kPa	73.4355 kg/m3
365 K, 3675.6 kPa	100.804 kg/m3 and 100.799 kg/m3 and 100.803 kg/m3
365 K, 3675.7 kPa	100.805 kg/m3
365 K, 4200.9 kPa	337.532 kg/m3 and 337.539 kg/m3 and 337.537 kg/m3
365 K, 4201.1 kPa	337.536 kg/m3
365 K, 4201.2 kPa	337.534 kg/m3
365 K, 4201.3 kPa	337.537 kg/m3 and 337.54 kg/m3
365 K, 4201.5 kPa	337.541 kg/m3
369 K, 4143.7 kPa	146.446 kg/m3 [middle of 6 runs]
369 K, 4143.8 kPa	146.438 kg/m3 and 146.437 kg/m3
369 K, 4197.8 kPa	281.2 kg/m3 and 281.206 kg/m3
369 K, 4197.9 kPa	281.145 kg/m3
369 K, 4198 kPa	281.222 kg/m3 [middle of 4 runs]
369 K, 4198.1 kPa	281.241 kg/m3
369.82 K, 4245.5 kPa	199.588 kg/m3 and 199.89 kg/m3 and 199.647 kg/m3
369.82 K, 4245.6 kPa	199.834 kg/m3
369.82 K, 4246.6 kPa	245.595 kg/m3
369.82 K, 4985.6 kPa	337.371 kg/m3
369.82 K, 19374 kPa	448.259 kg/m3
369.82 K, 19375 kPa	448.259 kg/m3 [middle of 7 runs]
369.83 K, 3309.2 kPa	73.3627 kg/m3
369.83 K, 3309.3 kPa	73.3633 kg/m3 and 73.3643 kg/m3 and 73.3637 kg/m3
369.83 K, 3309.4 kPa	73.3693 kg/m3 [middle of 4 runs]
369.83 K, 4186.1 kPa	146.569 kg/m3
369.83 K, 4186.2 kPa	146.57 kg/m3 [middle of 6 runs]
369.83 K, 4186.3 kPa	146.572 kg/m3
369.83 K, 4245.5 kPa	199.889 kg/m3
369.83 K, 4245.6 kPa	200.17 kg/m3 and 199.849 kg/m3 and 199.989 kg/m3
369.83 K, 4246.6 kPa	245.029 kg/m3 and 245.142 kg/m3
369.83 K, 4246.7 kPa	245.511 kg/m3 and 245.436 kg/m3
369.83 K, 4246.8 kPa	245.25 kg/m3 and 245.225 kg/m3
369.83 K, 4246.9 kPa	245.368 kg/m3
369.83 K, 4284.4 kPa	281.216 kg/m3
369.83 K, 4284.5 kPa	281.229 kg/m3 and 281.217 kg/m3
